This test has as its target T1, HPK1 (Homo sapiens, UniProt Q92918).
T1 construct: purchased SignalChem M23-11G
T1 sequence (Q92918 1-346 limits assumed): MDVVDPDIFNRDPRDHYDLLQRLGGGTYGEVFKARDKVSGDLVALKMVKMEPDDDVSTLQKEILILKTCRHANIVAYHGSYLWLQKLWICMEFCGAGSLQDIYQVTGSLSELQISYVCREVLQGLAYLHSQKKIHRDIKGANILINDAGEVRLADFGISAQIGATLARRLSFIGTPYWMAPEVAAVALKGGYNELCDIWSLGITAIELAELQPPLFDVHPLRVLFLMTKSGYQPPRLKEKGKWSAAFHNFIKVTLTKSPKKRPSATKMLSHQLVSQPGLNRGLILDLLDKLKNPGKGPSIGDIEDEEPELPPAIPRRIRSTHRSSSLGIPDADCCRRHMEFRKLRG
Description: HPK1 Kinase Binding Assay. Particulars: LanthaScreen tracer 222, one hour incubation at 25 °C. How it is done: A stock solution of 1 mM test compound was prepared in DMSO. The compound plate was prepared by 3-fold and 11-point serial dilutions. 0.1 µL of the compound in DMSO was transferred from the compound plate to the white 384 well polystyrene plates. The assay buffer contained 50 mM HEPES, pH 7.5, 0.01% Tween-20, 5 mM MgCl2, 0.01% BSA, and 5 mM DTT. 5 µL of 4 nM active HPK1 (SignalChem M23-11G) prepared in the buffer was added to the plate. The enzyme concentration given was based on the given stock concentration reported by the vender. […] After one hour incubation at 25 °C, the plates were read on a PHERAstar FS plate reader (BMG Labtech). Ki values were determined.
On the technique in general: In TR-FRET formats the signal depends on donor and acceptor labels being close together.

Among the data in EP3755703B1, “N-(PHENYL)-2-(PHENYL)PYRIMIDINE-4-CARBOXAMIDE DERIVATIVES AND RELATED COMPOUNDS AS HPK1 INHIBITORS FOR TREATING CANCER” (Incyte Corporation, priority 2018, dated 2019) are Ki values, retold here.

As usually defined, the Ki is a measure of affinity in units of concentration, obtained from inhibition or displacement.

For the compound `COc1cccc(F)c1-c1nccc(C(=O)Nc2cc(F)ccc2N2CCC[C@@H]2CN)n1` [Example 3, (R)-N-(2-(2-(Aminomethyl)pyrrolidin-1-yl)-5-fluorophenyl)-2-(2-fluoro-6-methoxyphenyl)pyrimidine-4-carboxamide], the Ki was < 100 nM.
`COc1cccc(F)c1-c1nccc(C(=O)Nc2cc(F)ccc2N2CCC[C@@H]2CO)n1` [Example 4, (R)-N-(5-Fluoro-2-(2-(hydroxymethyl)pyrrolidin-1-yl)phenyl)-2-(2-fluoro-6-methoxyphenyl)pyrimidine-4-carboxamide]: the inhibition constant (Ki) was < 100 nM.
With `COC[C@H]1CCCN1c1ccc(F)cc1NC(=O)c1ccnc(-c2c(F)cccc2OC)n1` [Example 5, (R)-N-(5-Fluoro-2-(2-(methoxymethyl)pyrrolidin-1-yl)phenyl)-2-(2-fluoro-6-methoxyphenyl)pyrimidine-4-carboxamide] the figure was 100 to 500 nM; with `COc1cccc(F)c1-c1nccc(C(=O)Nc2cc(F)ccc2N2C[C@@H](O)C[C@@H]2C)n1` [Example 7, N-(5-Fluoro-2-((2S,4S)-4-hydroxy-2-methylpyrrolidin-1-yl)phenyl)-2-(2-fluoro-6-methoxyphenyl)pyrimidine-4-carboxamide], < 100 nM; with `COc1cccc(F)c1-c1nccc(C(=O)Nc2cc(F)ccc2N2CCCC2c2ccccn2)n1` (stereo not drawn) [Example 8, N-(5-Fluoro-2-(2-(pytidin-2-yl)pyrrolidin-1-yl)phenyl)-2-(2-fluoro-6-methoxyphenyl)pyrimidine-4-carboxamide], 500 to 5000 nM.
With `COc1cccc(F)c1-c1nccc(C(=O)Nc2cc(F)ccc2N2CCC3CNCC32)n1` (stereo not drawn) [Example 9, N-(5-Fluoro-2-(hexahydropyrrolo[3,4-b]pyrrol-1(2H)-yl)phenyl)-2-(2-fluoro-6-methoxyphenyl)pyrimidine-4-carboxamide] the figure was 500 to 5000 nM.
As for `COc1cccc(F)c1-c1nccc(C(=O)Nc2cc(F)ccc2N2CCNC[C@H]2C)n1` [Example 10], the Ki was < 100 nM.
With `COc1cccc(F)c1-c1nccc(C(=O)Nc2cc(F)ccc2N2CCNC[C@@H]2CO)n1` [Example 11, (R)-N-(5-Fluoro-2-(2-(hydroxymethyl)piperazin-1-yl)phenyl)-2-(2-fluoro-6-methoxyphenyl)pyrimidine-4-carboxamide] the figure was < 100 nM; with `COc1cccc(F)c1-c1nccc(C(=O)Nc2cc(F)ccc2N2CCOCC2CO)n1` (stereo not drawn) [Example 12, N-(5-Fluoro-2-(3-(hydroxymethyl)morpholino)phenyl)-2-(2-fluoro-6-methoxyphenyl)pyrimidine-4-carboxamide], < 100 nM; with `COc1cccc(F)c1-c1nccc(C(=O)Nc2cc(F)cc(Br)c2N2C[C@H]3C[C@@H]2CN3)n1` [Example 13, N-(2-((1R,4R)-2,5-Diazabicyclo[2.2.1]heptan-2-yl)-3-bromo-5-fluorophenyl)-2-(2-fluoro-6-methoxyphenyl)pyrimidine-4-carboxamide], < 100 nM.
Regarding `COc1cccc(F)c1-c1nccc(C(=O)Nc2cccc(C#N)c2N2C[C@H]3C[C@@H]2CN3)n1` [Example 14, N-(2-((1R,4R)-2,5-Diazabicyclo[2.2.1]heptan-2-yl)-3-cyanophenyl)-2-(2-fluoro-6-methoxyphenyl)pyrimidine-4-carboxamide], the Ki was < 100 nM.
Turning to `COc1cccc(F)c1-c1nccc(C(=O)Nc2cc(F)cc(-c3cccnc3)c2N2C[C@H]3C[C@@H]2CN3)n1` [Example 15, N-(2-((1R,4R)-2,5-Diazabicyclo[2.2.1]heptan-2-yl)-5-fluoro-3-(pyridin-3-yl)phenyl)-2-(2-fluoro-6-methoxyphenyl)pyrimidine-4-carboxamide], the Ki was < 100 nM.
In the case of `COc1cccc(F)c1-c1nccc(C(=O)Nc2cc(F)cc(-c3cnn(C)c3)c2N2C[C@H]3C[C@@H]2CN3)n1` [Example 16, N-(2-((1R,4R)-2,5-Diazabicyclo[2.2.1]heptan-2-yl)-5-fluoro-3-(1-methyl-1H pyrazol-4-yl)phenyl)-2-(2-fluoro-6-methoxyphenyl)pyrimidine-4-carboxamide], the Ki is < 100 nM.
With `COc1cccc(F)c1-c1nccc(C(=O)Nc2cc(F)c(CO)cc2N2C[C@@H]3C[C@H]2CN3)n1` [Example 17, N-(2-((1S,4S)-2,5-Diazabicyclo[2.2.1]heptan-2-yl)-5-fluoro-4-(hydroxymethyl)phenyl)-2-(2-fluoro-6-methoxyphenyl)pyrimidine-4-carboxamide] the figure was < 100 nM.
With `COc1cccc(F)c1-c1nccc(C(=O)Nc2cc(F)c(Br)cc2N2C[C@@H]3C[C@H]2CN3)n1` [Example 18, N-(2-((1S,4S)-2,5-Diazabicyclo[2.2.1]heptan-2-yl)-4-bromo-5-fluorophenyl)-2-(2-fluoro-6-methoxyphenyl)pyrimidine-4-carboxamide], the Ki was […].
With `COc1cccc(F)c1-c1nccc(C(=O)Nc2cc(F)c(-c3cnn(C)c3)cc2N2C[C@@H]3C[C@H]2CN3)n1` [Example 19, N-(2-((1S,4S)-2,5-Diazabicyclo[2.2.1]heptan-2-yl)-5-fluoro-4-(1-methyl-1H-pyrazol-4-yl)phenyl)-2-(2-fluoro-6-methoxyphenyl)pyrimidine-4-carboxamide] the figure was […]; with `COc1cccc(F)c1-c1nccc(C(=O)Nc2cc(F)c(-c3ccc(CO)nc3)cc2N2C[C@@H]3C[C@H]2CN3)n1` [Example 20, N-(2-((1S,4S)-2,5-Diazabicyclo[2.2.1]heptan-2-yl)-5-fluoro-4-(6-(hydroxymethyl)pyridin-3-yl)phenyl)-2-(2-fluoro-6-methoxyphenyl)pyrimidine-4-carboxamide], < 100 nM.
For the compound `COc1cccc(F)c1-c1nccc(C(=O)Nc2ccc(-c3c(C)nn(C)c3C)cc2N2C[C@@H]3C[C@H]2CN3)n1` [Example 27, N-(2-((1S,4S)-2,5-Diazabicyclo[2.2.1]heptan-2-yl)-4-(1,3,5-trimethyl-1H-pyrazol-4-yl)phenyl)-2-(2-fluoro-6-methoxyphenyl)pyrimidine-4-carboxamide], the Ki was < 100 nM.
Take `COc1cccc(F)c1-c1nccc(C(=O)Nc2cc(F)c(CN3CCOCC3)cc2N2C[C@@H]3C[C@H]2CN3)n1` [Example 30, N-(2-((1S,4S)-2,5-Diazabicyclo[2.2.1]heptan-2-yl)-5-fluoro-4-(morpholinomethyl)phenyl)-2-(2-fluoro-6-methoxyphenyl)pyrimidine-4-carboxamide]: the Ki is < 100 nM.
On to `COc1cccc(F)c1-c1nccc(C(=O)Nc2cc(F)c(CNC3CCC3)cc2N2C[C@@H]3C[C@H]2CN3)n1` [Example 31, N-(2-((1S,4S)-2,5-Diazabicyclo[2.2.1]heptan-2-yl)-4-((cyclobutylamino)methyl)-5-fluorophenyl)-2-(2-fluoro-6-methoxyphenyl)pyrimidine-4-carboxamide], for which the Ki was < 100 nM.
For `CCN1C[C@H]2C[C@@H]1CN2c1ccc(F)cc1NC(=O)c1ccnc(-c2c(F)cccc2OC)n1` [Example 32, N-(2-((1R,4R)-5-Ethyl-2,5-diazabicyclo[2.2.1]heptan-2-yl)-5-fluorophenyl)-2-(2-fluoro-6-methoxyphenyl)pyrimidine-4-carboxamide], the Ki was < 100 nM.
With `COc1cccc(F)c1-c1nccc(C(=O)Nc2cc(F)ccc2N2C[C@H]3C[C@@H]2CN3CCO)n1` [Example 33, N-(5-Fluoro-2-((1R,4R)-5-(2-hydroxyethyl)-2,5-diazabicyclo[2.2.1]heptan-2-yl)phenyl)-2-(2-fluoro-6-methoxyphenyl)pyrimidine-4-carboxamide] the figure was < 100 nM; with `CCCNC(=O)N1C[C@H]2C[C@@H]1CN2c1ccc(F)cc1NC(=O)c1ccnc(-c2c(F)cccc2OC)n1` [Example 34, (1R,4R)-5-(4-Fluoro-2-(2-(2-fluoro-6-methoxyphenyl)pyrimidine-4-carboxamido)phenyl)-N-propyl-2,5-diazabicyclo[2.2.1]heptane-2-carboxamide], < 100 nM; with `COc1ccc(N2C[C@H]3C[C@@H]2CN3)c(NC(=O)c2ccnc(-c3c(F)cccc3OC)n2)c1` [Example 35, N-(2-((1R,4R)-2,5-Diazabicyclo[2.2.1]heptan-2-yl)-5-methoxyphenyl)-2-(2-fluoro-6-methoxyphenyl)pyrimidine-4-carboxamide], < 100 nM.
With `COc1cccc(F)c1-c1nccc(C(=O)Nc2cc(CO)ccc2N2C[C@H]3C[C@@H]2CN3)n1` [Example 36, N-(2-((1R,4R)-2,5-Diazabicyclo[2.2.1]heptan-2-yl)-5-(hydroxymethyl)phenyl)-2-(2-fluoro-6-methoxyphenyl)pyrimidine-4-carboxamide] the figure was < 100 nM; with `COc1cccc(F)c1-c1nccc(C(=O)Nc2cc(C#N)ccc2N2C[C@H]3C[C@@H]2CN3)n1` [Example 37, N-(2-((1R,4R)-2,5-Diazabicyclo[2.2.1]heptan-2-yl)-5-cyanophenyl)-2-(2-fluoro-6-methoxyphenyl)pyrimidine-4-carboxamide], 100 to 500 nM; with `COc1cccc(F)c1-c1nccc(C(=O)Nc2ccc(N3CCC3)cc2N2C[C@@H]3C[C@H]2CN3)n1` [Example 38, N-(4-(Azetidin-1-yl)-2-((1S,4S)-2,5-diazabicyclo[2.2.1]heptan-2-yl)phenyl)-2-(2-fluoro-6-methoxyphenyl)pyrimidine-4-carboxamide], < 100 nM.
